Measurements from EP2077851B1, “A PHARMACEUTICAL COMPOSITION COMPRISING CORDYCEPIN FOR THE TREATMENT AND PREVENTION OF OBESITY” (priority 2006, dated 2008).
Like-named read-outs stand apart in the source and are kept apart here.

What was measured:
[1] = cited from earlier work
3T3-L1 cells [2] = assay: Differentiation of 3T3-L1 fibroblast cells into adipocytes (oil red O staining); format: cell-based
Experimental: Fibroblast cells (3T3-L1 cells) were cultured in 10 cm-culture dishes containing animal cell culture media (refer to Table 2, below) at 37°C in a 5% CO2 incubator, with the media replaced with fresh media every two or three days.
3T3-L1 cell line was purchased from the American Type Culture Collection (ATCC CL-173). The cells were grown and differentiated according to the protocol of Frost and Lane (Frost and Lane, 1985): 3T3-L1 preadipocytes were cultured in 100 mm plates containing a submerged medium for proliferation (DMEM supplemented with 10% BCS, 100 U/ml penicillin, and 100 µg/ml streptomycin) in an atmosphere of 5% CO2 at 37°C. When the cell become confluent, the cells were harvested, splitted in a 6-well plate to a cell number of 4.0×10^5 cells/ml and subsequently cultured until reaching confluence again. Two days after confluence, the cells were stimulated to differentiate into adipocytes by incubating for 2 days in the medium for stimulating differentiation (MSD, DMEM containing 1 µM DEX, 0.5 mM IBMX, and 10 µg/ml insulin), and maintained in the differentiated state in the medium for differentiation (MFD containing 10% BCS and 5 µg/ml insulin) for 7 days. MSD was freshly replaced every 48 hours and the comparison of the each medium composition used in this example was shown in Table 2.
Cordycepin was dissolved in the appropriate warm medium and added at the final concentration of 4, 16, and 32 µM.
Cells obtained in Example 1-1 were washed twice with PBS (pH 7.4), fixed with 10% formalin in PBS for 1 hour at room temperature and washed three times with distilled water. The cells were stained with filtered 0.5% oil red O for 10 min, and washed again with distilled water three times. The pictures of the stained cells were taken using an Olympus (CKX-41, Tokyo, Japan) microscope. The density of stained oil red O was measured using a spectrometer (DU-70, Beckman, Fullerton, CA) at 518 nm after the dye was extracted with propanol. […]

anti-leptin = assay: Western blot analysis of protein expression in 3T3-L1 cells; format: cell-based; conditions: 32 µM, differentiated 3T3-L1 cells, FIG. 8
Experimental: (§1) Western blot analysis was performed in order to examine the effect of cordycepin on the expression of C/EBPα, PPARγ, and anti-leptin, the essential factors involved in adipogenesis and lipogenesis.
(§2) 3T3-L1 cells cultured in 6-well dishes were rinsed three times with ice-cold PBS, scraped into 0.5 ml of PBS, and centrifuged at 14,000 rpm for 1 min. Cell pellets were resuspended in 0.2 ml ice-cold RIPA buffer (50 mM Tris-HCl, pH 7.4, 150 mM NaCl, 1 mM EDTA, 1% NP 40, 0.25 % deoxycholate) and protease inhibitors (Complete Mini Protease Inhibitor Tablets, Roche, Indianapolis, IN). Suspensions were sheared through a 20-gauge needle, incubated on ice for 30 min and centrifuged at 14,000 rpm at 4°C for 20 min. Supernatants were collected and the protein concentration was determined using a BCA assay kit. Cell lysates were mixed with an equal volume of Laemmli SDS loading buffer (Bio-Rad Laboratories, Hercules, CA), equal amounts of lysate protein ([…]) were loaded onto SDS-PAGE, and electrophoresis was carried out before the protein was transferred to a nitrocellulose membrane (Bio-Rad Laboratories, Hercules, CA). The membranes were blocked for 1 h in PBS containing 0.05% Tween-20 (USB corp., Cleveland, USA) and 5% nonfat dry milk. The membranes were incubated with antibodies against C/EBPα, PPARγ (Santa Cruz, CA) and anti-leptin (Sigma) for 1 hour, followed by three 10 min washes in PBS/Tween-20. The blots were subsequently treated with appropriate secondary antibodies conjugated to horseradish peroxidase for 1 hour at room temperature, and washed with PBS-T three times for 10 min. To visualize reaction complexes, an enhanced chemiluminescence system (ECL, Amersham International plc, Little Chalfont Buckinghamshire, England) was used, and reaction complexes were exposed to X-ray film.

C/EBPα = assay: as above; format: cell-based; conditions: FIG. 8
Experimental: as §1, §2

PPARγ = assay: as above; format: cell-based; conditions: FIG. 8
Experimental: as §1, §2

3T3-L1 cells [3] = assay: Triacylglycerol synthesis in 3T3-L1 cells (intracellular triacylglycerol per unit weight of protein); format: cell-based
Experimental: A measurement was made to find the effect of cordycepin on the synthesis of triacylglycerol (TAG). First, the cells in each group were detached using a Tris-EDTA buffer and disrupted with an ultrasonicator. A calibration curve for a standard solution was made according to the protocol of a BCA protein assay kit. The cell lysates were diluted in the kit reagent and warmed at 37°C for 30 min. Then, within 10 min, the solutions were measured for absorbance at 562 nm to quantify protein. Separately, according to the protocol of a BCS triacylglycerol kit, the cell lysates were diluted in the kit reagent and warmed at 37°C for 10 min. Then, within 60 min, the absorbance of the solutions was measured at 550 nm against a reagent blank. The amount of intracellular triacylglycerol per unit weight of protein (µg/mg) was calculated according to a calculation formula.
For the preliminary investigation of the mode of action of cordycepin on differentiation and TAG synthesis, adenosine, one of several cordycepin homologues, was added to the submerged medium for differentiation at the time of initiating differentiation at the same molar concentration as cordycepin (32 µM).

[4] = anti-obesity drugs, background knowledge
[5] = adenosine 32 µM, differentiated 3T3-L1 cells

## NC1=NCC(c2ccccc2)O1 (centres unmarked) [Aminorex]
[1]; [4]
  Side effect: Pulmonary hypertension caused

## CC(N)Cc1ccccc1 (centres unmarked) [Amphetamine]
[1]; in vivo
  Side effect: Addictive

## CCNC(C)Cc1cccc(C(F)(F)F)c1 (centres unmarked) [Fenfluramine]
[1]; share of persons, sale prohibited in 1997
  Valvular dysfunction caused in persons administered in combination with other therapy: Valvular dysfunction caused in 35% of persons administered in combination with other therapy, sale prohibited in 1997.

## CCCCCCCCCCC[C@@H](C[C@@H]1OC(=O)[C@H]1CCCCCC)OC(=O)[C@H](CC(C)C)NC=O [Orlistat]
[1]; [4]
  Side effect: Diarrhea, fatty stool, fecal incontinence.

## CC(C)CC(N(C)C)C1(c2ccc(Cl)cc2)CCC1 (centres unmarked) [Sibutramine]
[1]; [4]
  Side effect: Blood pressure increase, insomnia, xerostomia and vertigo. Prohibited to the patients with cardiovascular disease.

## Nc1ncnc2c1ncn2[C@@H]1O[C@H](CO)[C@@H](O)[C@H]1O [adenosine]
3T3-L1 cells [2]; adenosine 32 µM added together with cordycepin 32 µM at initiation of differentiation, FIG. 6
  inhibitory effect of cordycepin on differentiation of 3T3-L1 cells: suppressed
anti-leptin
  expression levels of anti-leptin: no significant effect
C/EBPα; [5]
  C/EBPα level: inhibited
PPARγ; [5]
  expression levels of PPARγ: no significant effect
3T3-L1 cells [3]; adenosine 32 µM added together with cordycepin 32 µM at initiation of differentiation, FIG. 7
  inhibitory effect of cordycepin on TAG synthesis of 3T3-L1 cells: suppressed

## Nc1ncnc2c1ncn2[C@@H]1O[C@H](CO)C[C@H]1O [cordycepin, 3'-deoxyadenosine]
3T3-L1 cells [2]; cordycepin 4, 16 and 32 µM, oil red O, 518 nm, FIG. 4
  differentiation of 3T3-L1 cells into adipose cells: inhibits the differentiation of 3T3-L1 cells into adipose cells in a dose-dependent manner
3T3-L1 cells [2]; in the presence of 32 µM of cordycepin, FIG. 4
  differentiation of 3T3-L1 cells into adipocytes: almost completely suppressed
anti-leptin
  expression levels of anti-leptin: inhibited
C/EBPα; 32 µM, 3T3-L1 cells
  expression levels of C/EBPα: inhibited
PPARγ; 32 µM, 3T3-L1 cells
  expression levels of PPARγ: inhibited
3T3-L1 cells [3]; cordycepin 4, 16 and 32 µM, FIG. 5
  synthesis of triacylglycerol in 3T3-L1 cells: inhibits the synthesis of triacylglycerol in 3T3-L1 cells in a dose-dependent manner

## Thyroid hormone
[1]; [4]
  Side effect: Hyperthyroidism caused
